Source: ChEMBL document CHEMBL1681649, “Design, synthesis and biological evaluation of novel 4-hydroxybenzene acrylic acid derivatives” (Bioorg Med Chem Lett, 2011)

How the values were obtained:
[1] = test system: Mus musculus; assay: Antiinflammatory activity in xylene-induced Kunming mouse ear edema model assessed as suppression of ear swelling at 75 mg/kg, po; format: functional
[2] = test system: Mus musculus; assay: Antiinflammatory activity in xylene-induced Kunming mouse ear edema model assessed as suppression of ear swelling at 150 mg/kg, po; format: functional
[3] = test system: Mus musculus; assay: Cardiotoxicity in Kunming mouse assessed as pathological changes at 150 mg/kg, po after 12 days; format: toxicity, organism-based; parameters: dose 150 mg/kg, route oral; conditions: in vivo, 288 h
[4] = test system: Mus musculus; assay: Antiinflammatory activity in xylene-induced Kunming mouse ear edema model assessed as suppression of ear swelling at 300 mg/kg, po; format: functional
[5] = test system: Mus musculus; assay: Antiinflammatory activity in xylene-induced Kunming mouse ear edema model assessed as suppression of ear swelling at 100 mg/kg, po; format: functional
[6] = test system: Mus musculus; assay: Cardiotoxicity in Kunming mouse assessed as pathological changes at 100 mg/kg, po after 12 days; format: toxicity, organism-based; parameters: dose 100 mg/kg, route oral; conditions: in vivo, 288 h

Compound | Activity [1] [%] | Activity [4] [%] | further results
COc1cc(/C=C(/C(=O)O)c2ccc(S(C)(=O)=O)cc2)ccc1OC(C)=O | 12.38 | 45.29 | Activity [2]: 26.12%; Activity [3]: Non-toxic
COc1cc(/C=C(/C(=O)O)c2ccc(S(C)(=O)=O)cc2)ccc1O | – | 9.97 | –
COc1ccc(/C=C(/C(=O)O)c2ccc(S(C)(=O)=O)cc2)cc1OC | – | 15.92 | –
CC(=O)Oc1ccc(/C=C(/C(=O)O)c2ccc(S(C)(=O)=O)cc2)cc1 | 23.34 | 44.75 | Activity [2]: 32.87%
CCOC(=O)/C(=C/c1ccc(OC(C)=O)c(OC)c1)c1ccc(S(C)(=O)=O)cc1 | – | 24.11 | –
CCOC(=O)/C(=C/c1ccc(O)c(OC)c1)c1ccc(S(C)(=O)=O)cc1 | – | 34.62 | –
CCOC(=O)/C(=C/c1ccc(OC(C)=O)c(Br)c1)c1ccc(S(C)(=O)=O)cc1 | 0 | – | –
CS(=O)(=O)c1ccc(/C(=C\c2ccccc2)C(=O)O)cc1 | – | 17.49 | –
COc1cc(/C=C(/C(=O)O)c2ccccc2)ccc1OC(C)=O | – | 21.86 | –
COc1ccc2c(c1)c(CC(=O)O)c(C)n2C(=O)c1ccc(Cl)cc1 [INDOMETHACIN] | – | – | Activity [5]: 37.03%; Activity [6]: Non-toxic
